Data on 25 compounds can be found in patent publication US20230203060A1 (GENFLEET THERAPEUTICS (SHANGHAI) INC., priority 2020, published 2023).

Structures can show the parent of a compound that is named as a salt. Where two headings read alike, the source gives them in different places.

Test [1] relates to A549 cells (KRAS G12S mutant). Nature of the test: Cell proliferation inhibition experiment, 3D spheroid, CellTiter-Glo, A549. Type of test: cell-based, human. The note with it: A549 (KRAS G12S mutant) 3D spheroid, 5 days with compound, CellTiter-Glo, read-out: A549 IC50. In short, it runs like this: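 3D spheroid format; 800 H358 / 400 A549 cells/well, 2% FBS. Cpd 3.16-fold series, 0.1% DMSO, 5 d. Readout CellTiter-Glo luminescence; IR% vs DMSO control and medium blank; 4-parameter IC50.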

The test system of test [2] is KRAS G12C mutant MIA PaCa-2 cells. Description: Cell proliferation inhibition experiment, 3D spheroid, CellTiter-Glo, MIA PaCa-2. The note with it: 3D cell model in 384-well spheroid plate, 5 days, CellTiter-Glo, read-out: MIA-PaCa2 IC50. It counts as cell-based, human. In short, it runs like this:
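Luminescent ATP read-out (CellTiter-Glo) after 5-day compound treatment of spheroids formed overnight from 200 MIA PaCa-2 cells/well; compounds in 3.16-fold series, 0.1% DMSO final. IC50 derived by four-parameter fit of percent inhibition, normalized to DMSO control and medium blank.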
For orientation: In ATP-based viability assays light output follows the ATP content of the culture.

The mark [3] stands for this setting: Homo sapiens, MIA PaCa-2, 120 h.

As to `C=CC(=O)N1CCN2C(=O)c3c(N4CCN(C)C[C@@H]4C)nc(-c4nc(N)cc(C)c4C(F)(F)F)c(Cl)c3OC[C@H]2C1` [Z328-1, (R)-8-acryloyl-3-(6-amino-4-methyl-3-(trifluoromethyl)pyridin-2-yl)-4-chloro-1-((S)-2,4-dimethylpiperazin-1-yl)-6,6a,7,8,9,10-hexahydro-12H-pyrazino[2,1-c]pyrido[3,4-f][1,4]oxazepin-12-one], the IC50 in test [1] (Homo sapiens, A549, 120 h) stood at 16100 nM; in test [2] (setting [3]) it was 1.7 nM.
For `C=CC(=O)N1CCN2C(=O)c3c(N4CC[C@H](OC)[C@@H]4C)nc(-c4c(O)cccc4F)c(Cl)c3OC[C@H]2C1` [Z347-1, (6aR)-8-acryloyl-4-chloro-3-(2-fluoro-6-hydroxyphenyl)-1-((2S,3S)-3-methoxy-2-methylpyrrolidin-1-yl)-6,6a,7,8,9,10-hexahydro-12H-pyrazino[2,1-c]pyrido[3,4-f][1,4]oxazepin-12-one] the same measures were 9550 nM and 4 nM.
The like results for `C=CC(=O)N1CCN2C(=O)c3c(N4C[C@H](N(C)CCOC)CC4(C)C)nc(-c4c(O)cccc4F)c(Cl)c3OC[C@H]2C1` (single isomer, unassigned) [Z296-2] were, in that order, 3790 nM and 8 nM.
As for `C=CC(=O)N1CCN2C(=O)c3c(N4CCN(C)C(C)C4C)nc(-c4c(O)cccc4F)c(Cl)c3OC[C@H]2C1` (stereo partly drawn) [Z369, (6aR)-8-acryloyl-4-chloro-3-(2-fluoro-6-hydroxyphenyl)-1-(2,3,4-trimethylpiperazin-1-yl)-6,6a,7,8,9,10-hexahydro-12H-pyrazino[2,1-c]pyrido[3,4-f][1,4]oxazepin-12-one], the concentration for half-maximal inhibition (IC50) in test [1] came out at 27100 nM; in test [2], 6 nM.
For `C=CC(=O)N1CCN2C(=O)c3c(N(C)c4c(C(C)C)ncnc4C(C)C)nc(-c4c(O)cccc4F)c(Cl)c3OC[C@H]2C1` [Z20, (6aR)-8-acryloyl-4-chloro-1-((4,6-diisopropylpyrimidin-5-yl)(methyl)amino)-3-(2-fluoro-6-hydroxyphenyl)-6,6a,7,8,9,10-hexahydro-12H-pyrazino[2,1-c]pyrido[3,4-f][1,4]oxazepin-12-one], the IC50 in test [1] (Homo sapiens, A549, 120 h) amounted to 9020 nM; in test [2] (setting [3]) it was 8 nM.
The like results for `C=CC(=O)N1CCN2C(=O)c3c(N4C[C@](C)(O)CC4(C)C)nc(-c4c(O)cccc4F)c(Cl)c3OC[C@H]2C1` (single isomer, unassigned) [Z243-2] were, in that order, 3440 nM and 22.2 nM.
For `C=CC(=O)N1CCN2C(=O)c3c(N4CCN(C)C5(CC5)C4)nc(-c4c(O)cccc4F)c(Cl)c3OC[C@H]2C1` [Z83, (6aR)-8-acryloyl-4-chloro-3-(2-fluoro-6-hydroxyphenyl)-1-(4-methyl-4,7-diazaspiro[2 .5]octan-7-yl)-6,6a,7,8,9,10-hexahydro-12H-pyrazino[2,1-c]pyrido[3,4-f][1,4]oxazepin-12 (6aH)-one], the 50% inhibitory concentration (IC50) in test [1] (Homo sapiens, A549, 120 h) was greater than 10000 nM; in test [2] (setting [3]), 37.4 nM.
For `C=CC(=O)N1CCN2C(=O)c3c(N4CCN(C)C[C@@H]4C)nc(-c4c(F)ccc(F)c4O)c(Cl)c3OC[C@H]2C1` [Z356, (6aR)-8-acryloyl-4-chloro-3-(3,6-difluoro-2-hydroxyphenyl)-1-((S)-2,4-dimethylpiperazin-1-yl)-6,6a,7,8,9,10-hexahydro-12H-pyrazino[2,1-c]pyrido[3,4-f][1,4]oxazepin-12-one] the same measures were 28300 nM and 29 nM.
The like results for `C=CC(=O)N1CCN2C(=O)c3c(N4C[C@@H](OC)C[C@@H]4C)nc(-c4c(O)cccc4F)c(Cl)c3OC[C@H]2C1` [Z260a, (6aR)-8-acryloyl-4-chloro-3-(2-fluoro-6-hydroxyphenyl)-1-((2S,4S)-4-methoxy-2-methylpyrrolidin-1-yl)-6,6a,7,8,9,10-hexahydro-12H-pyrazino[2,1-c]pyrido[3,4-f][1,4]oxazepin-12-one] were, in that order, greater than 30000 nM and 3.6 nM.
For `C=CC(=O)N1CCN2C(=O)c3c(N4Cc5nn(C)cc5[C@@H]4C)nc(-c4c(O)cccc4F)c(Cl)c3OC[C@H]2C1` (single isomer, unassigned) [Z345-2] the same measures were 9400 nM and 17 nM.
For the compound `C=CC(=O)N1CCN2C(=O)c3c(N4CCN(C)C(=O)[C@@H]4C)nc(-c4c(O)cccc4F)c(Cl)c3OC[C@H]2C1` [Z311-1, (6aR)-8-actyloyl-4-chloro-1-((S)-2,4-dimethyl-3-oxopiperazin-1-yl)-3-(2-fluoro-6-hydroxyphenyl)-6,6a,7,8,9,10-hexahydro-12H-pyrazino[2,1-c]pyrido[3,4-f][1,4]oxazepin-12-one], the half-inhibitory concentration (IC50) was greater than 30000 nM in test [1] (Homo sapiens, A549, 120 h) and 12 nM in test [2] (setting [3]).
On to `C=CC(=O)N1CCN2C(=O)c3c(N4C[C@@H](O)CC4(C)C)nc(-c4c(O)ccc(Cl)c4F)c(F)c3OC[C@H]2C1` (single isomer, unassigned) [Z340-1], for which the IC50 in test [1] (Homo sapiens, A549, 120 h) worked out at 5510 nM; in test [2] (setting [3]) it was 11 nM.
For `C=CC(=O)N1CCN2C(=O)c3c(N4C[C@@H](N(C)C)CC4(C)C)nc(-c4c(O)cccc4F)c(Cl)c3OC[C@H]2C1` (single isomer, unassigned) [Z324-1] the same measures were 2850 nM and 2.4 nM.
For `C=CC(=O)N1CCN2C(=O)c3c(N4CCC(C)(C)C4)nc(-c4c(O)cccc4F)c(Cl)c3OC[C@H]2C1` [Z21, (6aR)-8-acryloyl-4-chloro-1-(3,3-dimethylpyrrolidin-1-yl)-3-(2-fluoro-6-hydroxyphenyl)-6,6a,7,8,9,10-hexahydro-12H-pyrazino[2,1-c]pyrido[3,4-f][1,4]oxazepin-12-one] the same measures were greater than 20000 nM and 65 nM.
As for `C=CC(=O)N1CCN2C(=O)c3c(N4C[C@H](OC)CC4(C)C)nc(-c4c(O)cccc4F)c(Cl)c3OC[C@H]2C1` (single isomer, unassigned) [Z244-2], the concentration for half-maximal inhibition (IC50) in test [1] (Homo sapiens, A549, 120 h) turned out to be 2080 nM; in test [2] (setting [3]) it was 1 nM.
Take `C=CC(=O)N1CCN2C(=O)c3c(N4Cc5cn(C)nc5C4C)nc(-c4c(O)cccc4F)c(Cl)c3OC[C@H]2C1` (some centres unmarked) [Z291-2]: the IC50 came to 9690 nM in test [1] (Homo sapiens, A549, 120 h) and 7 nM in test [2] (setting [3]).
For `C=CC(=O)N1CCN2C(=O)c3c(N4C[C@@H](OC)CC4(C)C)nc(-c4c(O)cccc4F)c(F)c3OC[C@H]2C1` (single isomer, unassigned) [Z256a-1] the same measures were 9160 nM and 11.6 nM.
Take `C=CC(=O)N1CCN2C(=O)c3c(N4Cc5cn(C)nc5[C@H]4C)nc(-c4c(O)cccc4F)c(Cl)c3OC[C@H]2C1` (single isomer, unassigned) [Z291-1S, trifluoroacetate]: the concentration for half-maximal inhibition (IC50) was 9220 nM in test [1] (Homo sapiens, A549, 120 h) and 30.7 nM in test [2] (setting [3]).
For `C=CC(=O)N1CCN2C(=O)c3c(N4CCN(C)C[C@@H]4C)nc(-c4c(F)ccc(Cl)c4O)c(Cl)c3OC[C@H]2C1` [Z342, (6aR)-8-acryloyl-4-chloro-3-(3-chloro-6-fluoro-2-hydroxyphenyl)-1-((S)-2,4-dimethylpiperazin-1-yl)-6,6a,7,8,9,10-hexahydro-12H-pyrazino[2,1-c]pyrido[3,4-f][1,4]oxazepin-12-one] the same measures were 3060 nM and 16 nM.
The like results for `C=CC(=O)N1CCN2C(=O)c3c(N4CC(C#N)CC4(C)C)nc(-c4c(O)cccc4F)c(Cl)c3OC[C@H]2C1` (stereo partly drawn) [Z275, (6aR)-8-acryloyl-1-(4-cyano-2,2-dimethylpyrrolidin-1-yl)-4-chloro-3-(2-fluoro-6-hydroxyphenyl)-6,6a,7,8,9,10-hexahydro-12H-pyrazino[2,1-c]pyrido[3,4-f][1,4]oxazepin-12-one] were, in that order, 7330 nM and 5 nM.
In the case of `C=CC(=O)N1CCN2C(=O)c3c(N4CCN(C)C[C@@H]4C)nc(-c4c(O)ccc(Cl)c4F)c(Cl)c3OC[C@H]2C1` [Z343, (6aR)-8-acryloyl-4-chloro-3-(3-chloro-2-fluoro-6-hydroxyphenyl)-1-((S)-2,4-dimethylpiperazin-1-yl)-6,6a,7,8,9,10-hexahydro-12H-pyrazino[2,1-c]pyrido[3,4-f][1,4]oxazepin-12-one], the 50% inhibitory concentration (IC50) in test [1] (Homo sapiens, A549, 120 h) stood at 6800 nM; in test [2] (setting [3]) it was 18 nM.
For `C=CC(=O)N1CCN2C(=O)c3c(N4C[C@@H](N(C)CCOC)C[C@@H]4C)nc(-c4c(O)cccc4F)c(Cl)c3OC[C@H]2C1` [Z358-1] the same measures were greater than 10000 nM and 7.2 nM.
The like results for `C=CC(=O)N1CCN2C(=O)c3c(N4CC(N(C)CCOC)CC4(C)C)nc(-c4c(O)cccc4F)c(Cl)c3OCC2C1` (single isomer, unassigned) [Z296-1] were, in that order, 3340 nM and 1.1 nM.
The like results for `C=CC(=O)N1CCN2C(=O)c3c(N4CC(N5CCOCC5)CC4(C)C)nc(-c4c(O)cccc4F)c(Cl)c3OC[C@H]2C1` (stereo partly drawn) [Z344, (6aR)-8-acryloyl-4-chloro-1-((2,2-dimethyl-4-morpholinopyrrolidin-1-yl))-3-(2-fluoro-6-hydroxyphenyl)-6,6a,7,8,9,10-hexahydro-12H-pyrazino[2,1-c]pyrido[3,4-f][1,4]oxazepin-12-one] were, in that order, 3720 nM and 3 nM.
For `C=CC(=O)N1CCN2C(=O)c3c(N4CC[C@@H](OC)[C@@H]4C)nc(-c4c(O)cccc4F)c(Cl)c3OC[C@H]2C1` [Z338-1, (6aR)-8-acryloyl-4-chloro-3-(2-fluoro-6-hydroxyphenyl)-1-((2S,3R)-3-methoxy-2-methylpyrrolidin-1-yl)-6,6a,7,8,9,10-hexahydro-12H-pyrazino[2,1-c]pyrido[3,4-f][1,4]oxazepin-12-one], the IC50 turned out to be 12300 nM in test [1] (Homo sapiens, A549, 120 h) and 9 nM in test [2] (setting [3]).

Broadly, the IC50 is the concentration at which inhibition is half-maximal.
